Test results taken from US4460508A, “5-Diazacycloalkylimidazo[1,2-c][1,3]benzodiazepines” (Ciba-Geigy Corporation, priority 1982, dated 1984).

Tested on: α-adrenergic
Assay: α-adrenergic blocking activity in vitro

CN1CCN(C2=Nc3ccccc3Cc3nccn32)CC1 [example 1, 5-(4-methyl-1-piperazinyl)-11H-imidazo[1,2-c][1,3]benzodiazepine]
α-adrenergic blocking activity: only minimal
